{
  "source": "patent US9758529B2",
  "about": "“Fused dihydro-4H-pyrazolo[5,1-C][1,4]oxazinyl compounds and analogs for treating CNS disorders” (Sunovion Pharmaceuticals Inc., priority 2015, dated 2017)",
  "note": "Where a name gives a salt, the structure may show the parent alone.",
  "data": [
    {"tested_on": "mice", "test": "Neuropharmacological Assay (SmartCube)", "type": "in vivo", "details": "i.p. 15 min before behavioral test; 3 doses, most efficacious dose(s) presented", "text": "Neurosci. […] As reported in Roberds, because psychiatric diseases generally result from disorders of cell-cell communication or circuitry, intact systems are useful in detecting improvement in disease-relevant endpoints. These endpoints are typically behavioral in nature, often requiring human observation and interpretation. To facilitate testing of multiple compounds for behavioral effects relevant to psychiatric disease, PsychoGenics, Inc. (Tarrytown, N.Y., “PGI”) developed SmartCube™, an automated system in which behaviors of compound-treated mice are captured by digital video and analyzed with computer algorithms. […] PGI Analytical Systems uses data from SmartCube™ to compare the behavioral signature of a test compound to a database of behavioral signatures obtained using a large set of diverse reference compounds. (The composition of the database as well as validation of the method is further described in Roberds). In this way, the neuropharmacological effects of a test compound can be predicted by similarity to major classes of compounds, such as antipsychotics, anxiolytics and antidepressants.\nThe SmartCube™ system produces an activity signature indicating the probability that the activity of the test compound at the administered dose matches a given class of neuropharmacological agents. (See, e.g., Roberds, FIGS. 2 and 3). The test compound is simultaneously compared against multiple classes of agents; thus, a separate probability is generated for each behavioral effect measured (e.g., anxiolytic activity, analgesic activity, etc.). In Table 2 and 2B, these probabilities are reported for each behavioral effect measured as follows:\nwhere LOQ is the limit of quantification.\nProvided compounds were dissolved in a mixture of Pharmasolve™ (N-methyl-2-pyrrolidone), polyethylene glycol and propylene glycol, and were injected i.p. 15 min. before the behavioral test. For each compound, injections were administered at 3 different doses. For each behavioral effect measured, results for the most efficacious dose(s) are presented.", "values": [
      {"smiles": "c1ccc2c3n(nc2c1)CCOC3CN1CCOCC1", "note": "(stereo not shown) [Compound 20, 1-(morpholinomethyl)-3,4-dihydro-1H-[1,4]oxazino[4,3-b]indazole hydrogen chloride salt]", "AD: ADHD (probability of class match)": "+ (LOQ≦ + <5%)", "AG: analgesic (probability of class match)": "++ (5%≦ ++ <25%)", "AX: anxiolytic (probability of class match)": "+++ (25%≦ +++ <50%)", "CE: cognitive enhancer (probability of class match)": "++ (5%≦ ++ <25%)", "DP: anti-depressant (probability of class match)": "++ (5%≦ ++ <25%)", "HA: hallucinogen (probability of class match)": "+ (LOQ≦ + <5%)", "MS: mood stabilizer (probability of class match)": "+ (LOQ≦ + <5%)", "PS: anti-psychotic (probability of class match)": "++ (5%≦ ++ <25%)", "SD: sedative hypnotic (probability of class match)": "+ (LOQ≦ + <5%)", "UN: uncharacterized CNS activity (probability of class match)": "+ (LOQ≦ + <5%)", "XG: anxiogenic (probability of class match)": "+ (LOQ≦ + <5%)"},
      {"smiles": "CN1CCO[C@@H]([C@H]2OCCn3nc4ccccc4c32)C1", "note": "[Compound 26, (2R)-2-((S)-3,4-dihydro-1H-[1,4]oxazino[4,3-b]indazol-1-yl)-4-methylmorpholin-4-ium chloride]", "AD: ADHD (probability of class match)": "+ (LOQ≦ + <5%)", "AG: analgesic (probability of class match)": "++ (5%≦ ++ <25%)", "AX: anxiolytic (probability of class match)": "+ (LOQ≦ + <5%)", "CE: cognitive enhancer (probability of class match)": "+ (LOQ≦ + <5%)", "DP: anti-depressant (probability of class match)": "++ (5%≦ ++ <25%)", "HA: hallucinogen (probability of class match)": "+ (LOQ≦ + <5%)", "MS: mood stabilizer (probability of class match)": "+ (LOQ≦ + <5%)", "PS: anti-psychotic (probability of class match)": "+ (LOQ≦ + <5%)", "SD: sedative hypnotic (probability of class match)": "+ (LOQ≦ + <5%)", "UN: uncharacterized CNS activity (probability of class match)": "+ (LOQ≦ + <5%)", "XG: anxiogenic (probability of class match)": "+ (LOQ≦ + <5%)"},
      {"smiles": "CN(C)CC1OCCn2nc3ccsc3c21.Cl", "note": "(stereo not shown) [Compound 59, 1-(6,7-dihydro-9H-thieno[3′,2′:3,4]pyrazolo[5,1-c][1,4]oxazin-9-yl)-N,N-dimethylmethanaminium chloride]", "AD: ADHD (probability of class match)": "+ (LOQ≦ + <5%)", "AG: analgesic (probability of class match)": "++ (5%≦ ++ <25%)", "AX: anxiolytic (probability of class match)": "++ (5%≦ ++ <25%)", "CE: cognitive enhancer (probability of class match)": "++ (5%≦ ++ <25%)", "DP: anti-depressant (probability of class match)": "++ (5%≦ ++ <25%)", "HA: hallucinogen (probability of class match)": "+ (LOQ≦ + <5%)", "MS: mood stabilizer (probability of class match)": "+ (LOQ≦ + <5%)", "PS: anti-psychotic (probability of class match)": "++ (5%≦ ++ <25%)", "SD: sedative hypnotic (probability of class match)": "+ (LOQ≦ + <5%)", "UN: uncharacterized CNS activity (probability of class match)": "+++ (25%≦ +++ <50%)", "XG: anxiogenic (probability of class match)": "+ (LOQ≦ + <5%)"},
      {"smiles": "CC1(CN)OCCn2nc3ccccc3c21.Cl", "note": "(stereo not shown) [Compound 39, (1-methyl-3,4-dihydro-1H-[1,4]oxazino[4,3-b]indazol-1-yl)methanaminium chloride]", "AD: ADHD (probability of class match)": "+ (LOQ≦ + <5%)", "AG: analgesic (probability of class match)": "+ (LOQ≦ + <5%)", "AX: anxiolytic (probability of class match)": "++ (5%≦ ++ <25%)", "CE: cognitive enhancer (probability of class match)": "+ (LOQ≦ + <5%)", "DP: anti-depressant (probability of class match)": "++ (5%≦ ++ <25%)", "HA: hallucinogen (probability of class match)": "+ (LOQ≦ + <5%)", "MS: mood stabilizer (probability of class match)": "+ (LOQ≦ + <5%)", "PS: anti-psychotic (probability of class match)": "+ (LOQ≦ + <5%)", "SD: sedative hypnotic (probability of class match)": "+ (LOQ≦ + <5%)", "UN: uncharacterized CNS activity (probability of class match)": "+ (LOQ≦ + <5%)", "XG: anxiogenic (probability of class match)": "+ (LOQ≦ + <5%)"},
      {"smiles": "Cl.NCC1OCCn2nc3ccsc3c21", "note": "(stereo not shown) [Compound 60, (6,7-dihydro-9H-thieno[3′,2′:3,4]pyrazolo[5,1-c][1,4]oxazin-9-yl)methanaminium chloride]", "AD: ADHD (probability of class match)": "++ (5%≦ ++ <25%)", "AG: analgesic (probability of class match)": "+ (LOQ≦ + <5%)", "AX: anxiolytic (probability of class match)": "+++ (25%≦ +++ <50%)", "CE: cognitive enhancer (probability of class match)": "+ (LOQ≦ + <5%)", "DP: anti-depressant (probability of class match)": "++ (5%≦ ++ <25%)", "HA: hallucinogen (probability of class match)": "+ (LOQ≦ + <5%)", "MS: mood stabilizer (probability of class match)": "+ (LOQ≦ + <5%)", "PS: anti-psychotic (probability of class match)": "+ (LOQ≦ + <5%)", "SD: sedative hypnotic (probability of class match)": "++ (5%≦ ++ <25%)", "UN: uncharacterized CNS activity (probability of class match)": "+ (LOQ≦ + <5%)", "XG: anxiogenic (probability of class match)": "+ (LOQ≦ + <5%)"},
      {"smiles": "CNCC1OCCn2nc3ccc(F)cc3c21", "note": "(stereo not shown) [Compound 7, 1-(9-fluoro-3,4-dihydro-1H-[1,4]oxazino[4,3-b]indazol-1-yl)-N-methylmethanaminium chloride]", "AD: ADHD (probability of class match)": "+ (LOQ≦ + <5%)", "AG: analgesic (probability of class match)": "++ (5%≦ ++ <25%)", "AX: anxiolytic (probability of class match)": "+ (LOQ≦ + <5%)", "CE: cognitive enhancer (probability of class match)": "+ (LOQ≦ + <5%)", "DP: anti-depressant (probability of class match)": "++++ (50%≦ ++++)", "HA: hallucinogen (probability of class match)": "+ (LOQ≦ + <5%)", "MS: mood stabilizer (probability of class match)": "+ (LOQ≦ + <5%)", "PS: anti-psychotic (probability of class match)": "+ (LOQ≦ + <5%)", "SD: sedative hypnotic (probability of class match)": "+ (LOQ≦ + <5%)", "UN: uncharacterized CNS activity (probability of class match)": "+ (LOQ≦ + <5%)", "XG: anxiogenic (probability of class match)": "+ (LOQ≦ + <5%)"},
      {"smiles": "CN(C)C[C@H]1OCCn2nc3ccccc3c21.Cl", "note": "[Compound 4, (R)-(3,4-dihydro-1H-[1,4]oxazino[4,3-b]indazol-1-yl)-N,N-dimethylmethanaminium chloride]", "AD: ADHD (probability of class match)": "++ (5%≦ ++ <25%)", "AG: analgesic (probability of class match)": "++ (5%≦ ++ <25%)", "AX: anxiolytic (probability of class match)": "+ (LOQ≦ + <5%)", "CE: cognitive enhancer (probability of class match)": "++ (5%≦ ++ <25%)", "DP: anti-depressant (probability of class match)": "++++ (50%≦ ++++)", "HA: hallucinogen (probability of class match)": "++ (5%≦ ++ <25%)", "MS: mood stabilizer (probability of class match)": "+ (LOQ≦ + <5%)", "PS: anti-psychotic (probability of class match)": "+ (LOQ≦ + <5%)", "SD: sedative hypnotic (probability of class match)": "+ (LOQ≦ + <5%)", "UN: uncharacterized CNS activity (probability of class match)": "++ (5%≦ ++ <25%)", "XG: anxiogenic (probability of class match)": "+ (LOQ≦ + <5%)"},
      {"smiles": "CN1CCC[C@H]1C1OCCn2nc3ccccc3c21", "note": "(stereo partly drawn) [Compound 14, 1-((S)-1-methylpyrrolidin-2-yl)-3,4-dihydro-1H-[1,4]oxazino[4,3-b]indazole hydrochloride]", "AD: ADHD (probability of class match)": "+ (LOQ≦ + <5%)", "AG: analgesic (probability of class match)": "+ (LOQ≦ + <5%)", "AX: anxiolytic (probability of class match)": "+++ (25%≦ +++ <50%)", "CE: cognitive enhancer (probability of class match)": "++ (5%≦ ++ <25%)", "DP: anti-depressant (probability of class match)": "++ (5%≦ ++ <25%)", "HA: hallucinogen (probability of class match)": "+ (LOQ≦ + <5%)", "MS: mood stabilizer (probability of class match)": "+ (LOQ≦ + <5%)", "PS: anti-psychotic (probability of class match)": "++ (5%≦ ++ <25%)", "SD: sedative hypnotic (probability of class match)": "+ (LOQ≦ + <5%)", "UN: uncharacterized CNS activity (probability of class match)": "+ (LOQ≦ + <5%)", "XG: anxiogenic (probability of class match)": "+ (LOQ≦ + <5%)"},
      {"smiles": "CNCC1OCCCn2nc3ccccc3c21.Cl", "note": "(stereo not shown) [Compound 51, 1-(4,5-dihydro-1H,3H-[1,4]oxazepino[4,3-b]indazol-1-yl)-N-methylmethanaminium chloride]", "AD: ADHD (probability of class match)": "++ (5%≦ ++ <25%)", "AG: analgesic (probability of class match)": "+ (LOQ≦ + <5%)", "AX: anxiolytic (probability of class match)": "++ (5%≦ ++ <25%)", "CE: cognitive enhancer (probability of class match)": "+ (LOQ≦ + <5%)", "DP: anti-depressant (probability of class match)": "+++ (25%≦ +++ <50%)", "HA: hallucinogen (probability of class match)": "+ (LOQ≦ + <5%)", "MS: mood stabilizer (probability of class match)": "+ (LOQ≦ + <5%)", "PS: anti-psychotic (probability of class match)": "+ (LOQ≦ + <5%)", "SD: sedative hypnotic (probability of class match)": "+ (LOQ≦ + <5%)", "UN: uncharacterized CNS activity (probability of class match)": "+ (LOQ≦ + <5%)", "XG: anxiogenic (probability of class match)": "+ (LOQ≦ + <5%)"},
      {"smiles": "CN1CCC2(C1)OCCn1nc3ccccc3c12.Cl", "note": "(stereo not shown) [Compound 23, 1′-methyl-3,4-dihydrospiro[[1,4]oxazino[4,3-b]indazole-1,3′-pyrrolidin]-1′-ium chloride]", "AD: ADHD (probability of class match)": "+ (LOQ≦ + <5%)", "AG: analgesic (probability of class match)": "++ (5%≦ ++ <25%)", "AX: anxiolytic (probability of class match)": "++++ (50%≦ ++++)", "CE: cognitive enhancer (probability of class match)": "++ (5%≦ ++ <25%)", "DP: anti-depressant (probability of class match)": "++ (5%≦ ++ <25%)", "HA: hallucinogen (probability of class match)": "+ (LOQ≦ + <5%)", "MS: mood stabilizer (probability of class match)": "+ (LOQ≦ + <5%)", "PS: anti-psychotic (probability of class match)": "+ (LOQ≦ + <5%)", "SD: sedative hypnotic (probability of class match)": "+ (LOQ≦ + <5%)", "UN: uncharacterized CNS activity (probability of class match)": "+ (LOQ≦ + <5%)", "XG: anxiogenic (probability of class match)": "+ (LOQ≦ + <5%)"},
      {"smiles": "CCNCC1OCCCn2nc3ccccc3c21.Cl", "note": "(stereo not shown) [Compound 57, N-((4,5-dihydro-1H,3H-[1,4]oxazepino[4,3-b]indazol-1-yl)methyl)ethanaminium chloride]", "AD: ADHD (probability of class match)": "+ (LOQ≦ + <5%)", "AG: analgesic (probability of class match)": "+ (LOQ≦ + <5%)", "AX: anxiolytic (probability of class match)": "+ (LOQ≦ + <5%)", "CE: cognitive enhancer (probability of class match)": "+ (LOQ≦ + <5%)", "DP: anti-depressant (probability of class match)": "+ (LOQ≦ + <5%)", "HA: hallucinogen (probability of class match)": "+ (LOQ≦ + <5%)", "MS: mood stabilizer (probability of class match)": "+ (LOQ≦ + <5%)", "PS: anti-psychotic (probability of class match)": "+ (LOQ≦ + <5%)", "SD: sedative hypnotic (probability of class match)": "+ (LOQ≦ + <5%)", "UN: uncharacterized CNS activity (probability of class match)": "+ (LOQ≦ + <5%)", "XG: anxiogenic (probability of class match)": "+ (LOQ≦ + <5%)"}
    ]}
  ]
}
